Measurements from patent US11242346B2, “Mechanistic target of rapamycin signaling pathway inhibitors and therapeutic applications thereof” (SUZHOU KINTOR PHARMACEUTICALS, INC., priority 2016, dated 2022).

Tests used:
mTOR (FRAP1) = mTOR (FRAP1) (Homo sapiens, UniProt P42345); assay: SelectScreen Profiling, Z'-LYTE kinase assay, mTOR (FRAP1); format: biochemical; conditions: 0.1 μM compound, ATP at Km, read-out: mTOR inh% @0.1 μM
Excerpt: (§1) Some of the example compounds were submitted to Life Technologies Corporation SelectScreen® Profiling Service to test their potency in inhibiting the kinase catalytic activities of mTOR, PI3Kα, VEGF2, FGFR1, HER1 (EGFR) and HER2. A concentration of ATP at the Km of the corresponding kinase was used for all assays. The mTOR (FRAP1), VEGF2, FGFR1, HER1 (EGFR) and HER2 assays used Z′-LYTE® technology. The PI3Kα assay used Adapta® technology. The symbol “inh %” as used herein generally refers to inhibition percentage.

[1] = test system: mammalian tumor cell lines such as PC-3, LNCAP, U87, Huh-7, HepG2 and MDA-MB-468; assay: Cell proliferation/survival MTT assay in tumor cell lines; format: cell-based; conditions: 5 days (120 h) culture; cell line not specified; read-out: IC50, inhibition of tumor cell growth (MTT)
Method: The cytotoxic or cytostatic activity of Formula I-III exemplary compounds was measured by establishing proliferating mammalian tumor cell lines such as PC-3, LNCAP, U87, Huh-7, HepG2 and MDA-MB-468 in a cell culture medium, adding a test compound, culturing the cells for a period of 5 days by measuring cell viability via MTT assays. Dose response data were obtained for each test compound and the degree of inhibition of tumor cell growth was expressed as an IC50 value. […] For example. For example, compounds of example 14, 15, 46,29, 45, 49, 122, 88, 54, 55, 58, 59, 63, 64, 66, 67, 68, 113, 86, 90.
PC-3 (or U87) cells were seeded in 96-well plates at low density (at 2,000 cells per well) in media supplemented with 10% FBS (growth media) and transferred to serum-free media (1% FBS) after 24 h. Designated concentrations of drug were added to each well. The cells were incubated for 120 h. At the end of drug exposure, 20 μL/well of MTT solution was added. After 4 h at 37° C. in a humidified 5% CO2 atmosphere, the absorbance at 490 nm was recorded by using a microplate reader. IC50 was calculated using GraphPad Prism version 5 for Windows. The curves were fit using a nonlinear regression model with a log (inhibitor) versus response formula.

[2] = Rat pharmacokinetic study (IV and PO); format: in vivo; conditions: for bioavailability: PO 10 mg/kg vs IV 5 mg/kg, read-out: Fpo (oral bioavailability)
Method: (§2) Active mTOR inhibitors in enzymatic and/or cell-based assays herein were evaluated for pharmacokinetic properties. Preferable compounds are with pharmacokinetic properties of low clearance, long half-life and/or good oral bioavailability (Fpo). In vitro, selected example compounds were evaluated for metabolic stability by incubating with human liver microsome (HLM) for 60 min. Compounds that were metabolized slower (i.e. higher % remaining) are preferred. […] The more metabolic stable example compounds in the HLM assay were further evaluated for pharmacokinetic properties in vivo. In a representative experiment, selected example compounds were dosed to rats intravenously (IV, 5 mg/kg, 30% PEG400+30% PG+1% DMSO in saline) and orally (PO, 10 mg/kg, 2.4% DMSO+0.1% Tween80 in 0.5% CMC-Na), rat blood samples were taken at designed time points after dosing and analyzed for tested drug concentrations using LC-MS/MS. Pharmacokinetic parameters were derived from the time curve of drug concentrations.

[3] = Metabolic stability in human liver microsome (HLM); format: in vitro ADME; conditions: incubation with human liver microsome for 60 min
Method: as §2

VEGF2 = VEGF2 (Homo sapiens, UniProt P35968); assay: SelectScreen Profiling, Z'-LYTE kinase assay, VEGF2; format: biochemical; conditions: 1 μM compound, ATP at Km, read-out: VEGF 2 inh % @1 μM
Excerpt: as §1

FGFR1 = FGFR1 (Homo sapiens, UniProt P11362); assay: SelectScreen Profiling, Z'-LYTE kinase assay, FGFR1; format: biochemical; conditions: 1 μM compound, ATP at Km, read-out: FGFR 1 inh % @1 μM
Excerpt: as §1

HER1 (EGFR) = HER1 (EGFR) (Homo sapiens, UniProt P00533); assay: SelectScreen Profiling, Z'-LYTE kinase assay, HER1 (EGFR); format: biochemical; conditions: 1 μM compound, ATP at Km, read-out: HER1 inh % @1 μM
Excerpt: as §1

HER2 = HER2 (Homo sapiens, UniProt P04626); assay: SelectScreen Profiling, Z'-LYTE kinase assay, HER2; format: biochemical; conditions: 1 μM compound, ATP at Km, read-out: HER2 inh % @1 μM
Excerpt: as §1

PI3Kα = PI3Kα (Homo sapiens, UniProt P42336); assay: SelectScreen Profiling, Adapta kinase assay, PI3Kα; format: biochemical; conditions: 0.1 μM compound, ATP at Km, read-out: PI3Kα inh % @0.1 μM
Sequence of PI3Kα (P42336 whole entry): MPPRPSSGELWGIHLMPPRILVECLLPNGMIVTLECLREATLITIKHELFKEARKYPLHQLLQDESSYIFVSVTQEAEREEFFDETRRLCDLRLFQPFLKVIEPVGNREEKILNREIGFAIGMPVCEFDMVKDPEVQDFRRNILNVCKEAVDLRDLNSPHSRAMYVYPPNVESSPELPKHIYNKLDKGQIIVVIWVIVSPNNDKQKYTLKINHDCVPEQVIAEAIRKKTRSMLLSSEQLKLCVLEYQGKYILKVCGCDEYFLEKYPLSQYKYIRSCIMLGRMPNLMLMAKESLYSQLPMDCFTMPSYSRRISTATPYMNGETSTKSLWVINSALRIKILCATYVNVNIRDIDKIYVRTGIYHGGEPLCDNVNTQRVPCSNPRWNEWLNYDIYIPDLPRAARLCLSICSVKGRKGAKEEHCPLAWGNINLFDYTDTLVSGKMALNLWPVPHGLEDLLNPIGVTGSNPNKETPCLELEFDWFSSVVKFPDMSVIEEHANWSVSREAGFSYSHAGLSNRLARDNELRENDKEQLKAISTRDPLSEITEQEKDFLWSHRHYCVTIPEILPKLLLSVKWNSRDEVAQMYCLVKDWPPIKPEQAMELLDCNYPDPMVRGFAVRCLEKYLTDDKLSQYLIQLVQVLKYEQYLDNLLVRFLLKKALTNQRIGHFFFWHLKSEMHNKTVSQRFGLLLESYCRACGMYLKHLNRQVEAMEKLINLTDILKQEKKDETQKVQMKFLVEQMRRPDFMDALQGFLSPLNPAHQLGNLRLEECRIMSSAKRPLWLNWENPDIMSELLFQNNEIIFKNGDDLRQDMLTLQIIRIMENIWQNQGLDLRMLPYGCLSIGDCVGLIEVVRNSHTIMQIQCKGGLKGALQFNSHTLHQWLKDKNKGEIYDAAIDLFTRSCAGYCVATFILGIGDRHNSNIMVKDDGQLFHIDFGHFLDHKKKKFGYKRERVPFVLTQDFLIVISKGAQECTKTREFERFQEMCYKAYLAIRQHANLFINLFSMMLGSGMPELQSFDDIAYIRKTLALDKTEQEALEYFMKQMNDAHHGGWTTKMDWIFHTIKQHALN
Sequence of PI3Kα (P27986 whole entry partner): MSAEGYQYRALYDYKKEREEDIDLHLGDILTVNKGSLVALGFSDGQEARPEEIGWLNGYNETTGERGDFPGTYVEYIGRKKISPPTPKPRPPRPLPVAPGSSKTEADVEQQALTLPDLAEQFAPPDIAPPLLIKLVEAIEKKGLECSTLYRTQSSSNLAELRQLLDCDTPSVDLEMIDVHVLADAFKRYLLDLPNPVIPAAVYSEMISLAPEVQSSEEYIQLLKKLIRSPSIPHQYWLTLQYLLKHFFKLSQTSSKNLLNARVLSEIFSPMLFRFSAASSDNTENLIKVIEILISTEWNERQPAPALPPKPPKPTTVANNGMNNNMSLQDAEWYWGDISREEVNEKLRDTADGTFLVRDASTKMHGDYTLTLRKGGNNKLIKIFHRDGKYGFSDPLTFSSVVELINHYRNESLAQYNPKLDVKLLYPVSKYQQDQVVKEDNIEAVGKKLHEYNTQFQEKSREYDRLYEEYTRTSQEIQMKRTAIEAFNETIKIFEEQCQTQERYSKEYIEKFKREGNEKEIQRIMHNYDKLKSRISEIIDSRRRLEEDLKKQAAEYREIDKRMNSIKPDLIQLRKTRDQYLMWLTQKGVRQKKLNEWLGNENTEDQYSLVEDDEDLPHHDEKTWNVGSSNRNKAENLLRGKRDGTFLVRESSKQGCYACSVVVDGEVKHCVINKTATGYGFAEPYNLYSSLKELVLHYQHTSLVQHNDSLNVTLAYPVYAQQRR

Sequence of HER2 (P04626 23-1255): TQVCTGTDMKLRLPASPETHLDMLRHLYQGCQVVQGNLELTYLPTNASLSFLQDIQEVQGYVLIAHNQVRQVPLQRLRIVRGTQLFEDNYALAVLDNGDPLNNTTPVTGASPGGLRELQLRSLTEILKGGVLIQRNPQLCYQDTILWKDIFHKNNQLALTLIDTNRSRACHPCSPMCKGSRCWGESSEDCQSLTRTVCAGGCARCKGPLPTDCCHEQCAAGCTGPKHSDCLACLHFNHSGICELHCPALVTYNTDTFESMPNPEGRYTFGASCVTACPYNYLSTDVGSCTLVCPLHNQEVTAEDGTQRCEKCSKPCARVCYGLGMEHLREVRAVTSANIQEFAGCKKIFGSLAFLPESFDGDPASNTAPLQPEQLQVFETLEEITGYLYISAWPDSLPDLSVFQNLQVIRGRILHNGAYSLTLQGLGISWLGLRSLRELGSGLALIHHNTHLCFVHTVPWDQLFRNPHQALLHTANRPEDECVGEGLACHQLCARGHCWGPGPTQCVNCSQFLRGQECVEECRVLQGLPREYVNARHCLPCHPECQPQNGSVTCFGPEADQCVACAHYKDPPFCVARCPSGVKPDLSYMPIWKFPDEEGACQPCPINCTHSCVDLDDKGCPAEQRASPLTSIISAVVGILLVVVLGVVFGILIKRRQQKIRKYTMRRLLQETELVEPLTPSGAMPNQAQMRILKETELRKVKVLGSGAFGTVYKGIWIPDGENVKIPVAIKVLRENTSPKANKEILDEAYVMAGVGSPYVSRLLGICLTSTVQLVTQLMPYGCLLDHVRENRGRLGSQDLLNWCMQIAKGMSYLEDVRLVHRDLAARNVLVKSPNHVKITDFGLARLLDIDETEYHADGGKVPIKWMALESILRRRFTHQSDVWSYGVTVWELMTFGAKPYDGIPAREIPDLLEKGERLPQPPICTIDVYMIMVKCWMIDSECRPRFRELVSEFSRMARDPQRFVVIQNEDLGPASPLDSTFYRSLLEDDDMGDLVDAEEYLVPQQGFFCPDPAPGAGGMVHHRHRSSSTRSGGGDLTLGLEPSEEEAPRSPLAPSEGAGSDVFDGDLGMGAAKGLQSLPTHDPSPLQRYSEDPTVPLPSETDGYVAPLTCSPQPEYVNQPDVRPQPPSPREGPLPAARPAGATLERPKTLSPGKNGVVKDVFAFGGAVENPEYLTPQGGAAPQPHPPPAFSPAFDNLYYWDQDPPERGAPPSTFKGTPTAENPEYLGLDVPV
Sequence of HER1 (EGFR) (P00533 25-1210): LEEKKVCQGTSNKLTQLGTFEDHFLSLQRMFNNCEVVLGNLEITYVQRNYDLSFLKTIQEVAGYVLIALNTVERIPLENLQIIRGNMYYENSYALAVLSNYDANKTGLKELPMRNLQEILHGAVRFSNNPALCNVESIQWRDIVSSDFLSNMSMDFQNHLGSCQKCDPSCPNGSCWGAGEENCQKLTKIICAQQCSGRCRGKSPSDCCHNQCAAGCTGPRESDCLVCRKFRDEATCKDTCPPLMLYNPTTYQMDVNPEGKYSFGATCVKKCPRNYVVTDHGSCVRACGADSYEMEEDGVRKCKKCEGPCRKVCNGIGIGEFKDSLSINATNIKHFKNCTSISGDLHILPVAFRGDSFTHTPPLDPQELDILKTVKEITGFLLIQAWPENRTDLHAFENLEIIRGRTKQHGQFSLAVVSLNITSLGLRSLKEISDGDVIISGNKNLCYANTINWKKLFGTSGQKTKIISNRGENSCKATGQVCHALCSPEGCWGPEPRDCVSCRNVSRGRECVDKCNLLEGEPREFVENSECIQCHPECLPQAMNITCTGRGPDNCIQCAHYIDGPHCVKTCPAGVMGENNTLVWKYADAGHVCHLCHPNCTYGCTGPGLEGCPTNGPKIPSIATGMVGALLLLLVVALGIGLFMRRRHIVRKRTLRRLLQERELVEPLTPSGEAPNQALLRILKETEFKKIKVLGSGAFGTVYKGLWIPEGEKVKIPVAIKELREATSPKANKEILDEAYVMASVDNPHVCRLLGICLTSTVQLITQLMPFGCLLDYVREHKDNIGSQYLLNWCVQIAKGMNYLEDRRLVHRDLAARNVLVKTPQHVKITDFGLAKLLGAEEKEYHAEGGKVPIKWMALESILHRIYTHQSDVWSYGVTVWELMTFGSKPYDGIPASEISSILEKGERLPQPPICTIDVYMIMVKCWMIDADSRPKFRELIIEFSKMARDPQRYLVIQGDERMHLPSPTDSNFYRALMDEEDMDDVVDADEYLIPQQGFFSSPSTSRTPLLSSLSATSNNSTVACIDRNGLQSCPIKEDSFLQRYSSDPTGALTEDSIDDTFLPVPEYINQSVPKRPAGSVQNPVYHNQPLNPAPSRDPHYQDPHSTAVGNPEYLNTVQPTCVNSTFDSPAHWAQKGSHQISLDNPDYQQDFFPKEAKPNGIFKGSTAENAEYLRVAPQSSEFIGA
Sequence of FGFR1 (P11362 22-822): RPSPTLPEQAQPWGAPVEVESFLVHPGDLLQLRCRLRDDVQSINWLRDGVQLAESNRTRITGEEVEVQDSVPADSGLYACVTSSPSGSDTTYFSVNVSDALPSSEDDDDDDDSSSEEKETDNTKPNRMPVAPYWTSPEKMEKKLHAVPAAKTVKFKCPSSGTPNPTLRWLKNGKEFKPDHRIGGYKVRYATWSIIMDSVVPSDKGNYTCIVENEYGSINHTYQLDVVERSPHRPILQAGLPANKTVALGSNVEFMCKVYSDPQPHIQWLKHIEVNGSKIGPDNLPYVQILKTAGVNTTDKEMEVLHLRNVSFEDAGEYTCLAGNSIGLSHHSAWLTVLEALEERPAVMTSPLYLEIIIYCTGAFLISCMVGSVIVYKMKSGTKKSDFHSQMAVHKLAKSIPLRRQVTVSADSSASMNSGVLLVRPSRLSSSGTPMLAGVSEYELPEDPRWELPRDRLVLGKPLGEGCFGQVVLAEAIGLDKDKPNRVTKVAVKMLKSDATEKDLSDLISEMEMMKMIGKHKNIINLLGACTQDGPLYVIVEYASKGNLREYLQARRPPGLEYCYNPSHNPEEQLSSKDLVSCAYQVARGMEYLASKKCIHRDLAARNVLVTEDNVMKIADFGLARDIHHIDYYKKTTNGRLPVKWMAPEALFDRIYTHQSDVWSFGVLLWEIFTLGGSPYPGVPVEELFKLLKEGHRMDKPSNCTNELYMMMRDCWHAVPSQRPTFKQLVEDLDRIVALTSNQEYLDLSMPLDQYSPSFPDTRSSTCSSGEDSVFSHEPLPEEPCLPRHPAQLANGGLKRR

## CN1CCN(CCNC(=O)c2ccc(NC(=O)Nc3ccc(-c4nc(N5CCOCC5)c5cccn5n4)cc3)cc2)CC1 [Example 49]
mTOR (FRAP1)
  inhibition at 0.1 µM: 88%
[1]
  IC50: < 500 nM

## CC(C)(O)c1ccc2c(N3CCOCC3)nc(-c3ccc(NC(=O)Nc4cccnc4)cc3)nn12 [Example 63]
mTOR (FRAP1)
  inhibition at 0.1 µM: 71%
[1]
  IC50: < 500 nM

## CN(C)C1CCN(C(=O)c2ccc(NC(=O)Nc3ccc(-c4nc(N5CCOCC5)c5ccc(C(C)(C)O)n5n4)cc3)cc2)CC1 [Example 90]
[1]
  IC50: < 500 nM

## CC(C)(C)C(=O)OCCNC(=O)Nc1ccc(-c2nc(N3CCOCC3)c3cccn3n2)cc1 [Example 128]
[2]; PO 10 mg/kg
  CL: 25.05 mL/min/kg
[2]; blood, PO 10 mg/kg
  AUC(0-t): 7290 ng·h/mL
  Cmax: 1520 ng/mL
  MRT: 3.45 h
  Tmax: 1.67 h
  half-life: 1.9 h
[2]; blood
  bioavailability: 22%

## O=C(Nc1ccc(C(=O)N2CCNCC2)cc1)Nc1ccc(-c2nc(N3CCOCC3)c3cccn3n2)cc1 [Example 56]
mTOR (FRAP1)
  inhibition at 0.1 µM: 88%
[3]
  metabolic stability in HLM: metabolically stable

## CS(=O)(=O)N1CCN(Cc2cc3nc(-c4cccc5[nH]ncc45)nc(N4CCOCC4)c3s2)CC1 [GDC0941, reference compound]
mTOR (FRAP1)
  inhibition at 0.1 µM: 6%

## O=C(Nc1ccc(C(=O)N2CC[C@@H](O)C2)cc1)Nc1ccc(-c2nc(N3CCOCC3)c3cccn3n2)cc1 [Example 67]
mTOR (FRAP1)
  inhibition at 0.1 µM: 87%
[1]
  IC50: < 500 nM
[3]
  metabolic stability in HLM: metabolically stable

## O=C(Nc1ccc(-c2nc(N3CCOCC3)c3cccn3n2)cc1)Nc1ccc(CO)nc1 [Example 96]
[3]
  metabolic stability in HLM: metabolically stable

## CN1CCCN(C(=O)c2ccc(NC(=O)Nc3ccc(-c4nc(N5CCOCC5)c5cccn5n4)cc3)cc2)CC1 [Example 59]
mTOR (FRAP1)
  inhibition at 0.1 µM: 93%
VEGF2
  inhibition at 1 µM: 10%
FGFR1
  inhibition at 1 µM: 7%
HER1 (EGFR)
  inhibition at 1 µM: 2%
HER2
  inhibition at 1 µM: -2%
[1]
  IC50: < 500 nM

## O=C(Nc1ccncc1)Nc1ccc(-c2nc(N3CCOCC3)c3cccn3n2)cc1 [Example 18]
PI3Kα
  inhibition at 0.1 µM: -13%

## O=C(Nc1ccc(C(=O)NCCN2CCOCC2)cc1)Nc1ccc(-c2nc(N3CCOCC3)c3cccn3n2)cc1 [Example 48]
mTOR (FRAP1)
  inhibition at 0.1 µM: 69%
PI3Kα
  inhibition at 0.1 µM: -15%

## CN(C)CCCNC(=O)c1ccc(NC(=O)Nc2ccc(-c3nc(N4CCOCC4)c4cccn4n3)cc2)cc1 [Example 47]
mTOR (FRAP1)
  inhibition at 0.1 µM: 89%
VEGF2
  inhibition at 1 µM: 10%
FGFR1
  inhibition at 1 µM: 6%
HER1 (EGFR)
  inhibition at 1 µM: 1%
HER2
  inhibition at 1 µM: -5%

## CN(C)C1CCN(C(=O)c2ccc(NC(=O)Nc3ccc(-c4nc(N5CCOCC5)c5ccc(C(F)(F)F)n5n4)cc3)cc2)CC1 [Example 64]
mTOR (FRAP1)
  inhibition at 0.1 µM: 62%
[1]
  IC50: < 500 nM
[3]
  metabolic stability in HLM: metabolically stable

## O=C(NCCO)Nc1ccc(-c2nc(N3C[C@H]4CC[C@@H](C3)O4)c3cccn3n2)cc1 [Example 127]
[3]
  metabolic stability in HLM: metabolically stable
[2]; PO 10 mg/kg
  CL: 112.9 mL/min/kg
[2]; blood, IV 5 mg/kg
  AUC(0-t): 3420 ng·h/mL
  Cmax: 3380 ng/mL
  MRT: 1.3 h
  clearance: 24.4 mL/min/kg
  half-life: 1.47 h
[2]; blood, PO 10 mg/kg
  AUC(0-t): 1400 ng·h/mL
  Cmax: 296 ng/mL
  MRT: 5.11 h
  Tmax: 0.417 h
  half-life: 3.29 h
[2]; blood
  bioavailability: 22%

## CN1CCN(C(=O)c2ccc(NC(=O)Nc3ccc(-c4nc(N5CCOCC5)c5ccc(C(F)(F)F)n5n4)cc3)cc2)CC1 [Example 65]
mTOR (FRAP1)
  inhibition at 0.1 µM: 63%
PI3Kα
  inhibition at 0.1 µM: 19%

## O=C(Nc1ccc(-c2nc(N3CCOCC3)c3cccn3n2)cc1)NC1CC1 [Example 38]
mTOR (FRAP1)
  inhibition at 0.1 µM: 69%
PI3Kα
  inhibition at 0.1 µM: -8%
